US9545453B2, “CXCR4 inhibiting carriers for nucleic acid delivery” (Wayne State University, priority 2011, dated 2017)
Entries after “also recorded” stand apart in the source; their conditions may differ.

Tests used:
CXCR4 [1] = biological target: T1, CXCR4 (Homo sapiens, UniProt P61073); assay: CXCL12-induced intracellular calcium flux (Fluo-3); type: cell-based; settings: Fluo-3 calcium indicator, CXCL12 stimulation
From the text: Binding of chemokine CXCL12 to its receptor CXCR4 triggers an intracellular signal transduction cascade comprising a transient increase in cytosolic free calcium.
Target sequence in this assay (P61073 whole entry, species assumed): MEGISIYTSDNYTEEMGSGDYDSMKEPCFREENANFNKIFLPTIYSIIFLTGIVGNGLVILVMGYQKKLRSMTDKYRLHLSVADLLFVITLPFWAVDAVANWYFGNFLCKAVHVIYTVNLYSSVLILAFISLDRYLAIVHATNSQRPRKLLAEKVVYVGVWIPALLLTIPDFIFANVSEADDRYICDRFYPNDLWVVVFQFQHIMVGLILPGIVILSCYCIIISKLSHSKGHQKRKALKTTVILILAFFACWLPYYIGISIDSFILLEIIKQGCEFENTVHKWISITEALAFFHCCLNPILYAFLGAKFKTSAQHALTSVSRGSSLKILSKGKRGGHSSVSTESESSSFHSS

pDNA = assay: DNA condensation by ethidium bromide exclusion assay; type: physicochemical; settings: pH 7.4
Experimental: The ability of P(AMD-CBA) to condense pDNA was determined by ethidium bromide exclusion (EtBr) assay by measuring the changes in EtBr/pDNA fluorescence. pDNA solution at a concentration of 20 μg/mL was mixed with EtBr (1 μg/mL) and fluorescence was measured and set to 100% using an excitation wavelength of 540 nm and an emission wavelength of 590 nm. Fluorescence readings were taken following a stepwise addition of the polycation solution, and the condensation curve for each polycation was constructed.
The ability of P(Cyc-CBA) to condense pDNA was determined by ethidium bromide exclusion (EtBr) assay by measuring the changes in EtBr/pDNA fluorescence. pDNA solution at a concentration of 20 μg/mL was mixed with EtBr (1 μg/mL) and fluorescence was measured and set to 100% using an excitation wavelength of 540 nm and an emission wavelength of 590 nm. Fluorescence readings were taken following a stepwise addition of the polycation solution, and the condensation curve for each polycation was constructed.
At pH 7.4, a w/w ratio above 2 was required for RPA to fully condense the DNA, which was higher than that required in case of RHB (w/w 1) and PEI (w/w 0.5). […] The redox stability of RPA/DNA polyplexes was tested by agarose gel electrophoresis after GSH treatment.

CXCR4+U2OS cells [2] = assay: Matrigel cell invasion assay towards CXCL12; type: cell-based, Human; settings: CXCL12-mediated invasion, 16 h
Experimental: The upper sides of the transwell inserts were coated with 40 μl Matrigel diluted in serum-free medium (v/v 1:3) per insert. The 24-well plates with coated inserts were then placed in 37° C. incubator for 2 h. CXCR4+U2OS cells were trypsinized and resuspended in different concentrations of drugs in serum-free medium for 30 min before adding to the inserts at a final concentration of 10,000 cells in 300 μl medium per insert. 20 nM CXCL12 in serum-free medium as the chemo-attractant was then added to corresponding wells in the companion plate. After 16 h, the non-invaded cells on the upper surface of the inserts were removed with a cotton swab. The invaded cells were then fixed and stained by dipping the inserts into Diff-Quick solution. The images were taken by EVOS ×1 microscope. Five 20× imaging areas were randomly selected for each insert and each sample was conducted in triplicate. Statistical significance of the observed differences in cell invasion was analyzed using non-parametric ANOVA with Dunn's multiple comparison test using GraphPad InStat (v. 3.10). P<0.05 was considered significant.
To further confirm the CXCR4 antagonism of RPA and RPA/DNA polyplexes, the anti-metastatic ability was evaluated by a Matrigel cell invasion assay. […] The DNA dose used in the experiment with the polyplexes (1 μg/mL DNA) was in the range of typical doses used in transfection experiments.

CXCR4 [3] = biological target: T1, CXCR4; assay: Phorbol myristate acetate-stimulated CXCR4 internalization; type: cell-based; settings: 100 ng/mL phorbol myristate acetate
From the text: It has been reported that CXCL12 and phorbol esters trigger CXCR4 internalization through entirely different uptake pathway (Signoret, Oldridge et al. 1997).
Target sequence in this assay (P61073 whole entry): as the sequence (P61073 whole entry, species assumed) above

[4] = complexes with nucleic acids
From the text: Ability to condense DNA is a prerequisite for successful polyplex gene delivery. FIG. 1 schematically represents this process.

[5] = Toxicity of copper complexes of P(AMD-CBA) (procedure of example 14); type: cell-based
Experimental: 20,000 cells were seeded per well in 96-well plates 24 hours ahead. The culturing medium was first removed and then replaced with 150 μL of medium containing increasing concentration of the polycations. After 24 hours, the incubation medium was removed and a mixture of 100 μL of fresh serum-free medium and 20 μL of MTS reagent solution was added to each well. The cells were incubated for at 37° C. in CO2 incubator for 2 hours. The absorbance at wavelength 505 nm was then measured to determine cell viability. IC50 values were calculated by Prism Graphpad Software.
Toxicity of polycations was also evaluated by MTS assay in Hep G2 cells and CXCR4+U2OS cells. […] Hep G2 cells were maintained in MEM supplemented with 10% FBS. Human epithelial osteosarcoma U2OS cells stably expressing human CXCR4 receptor fused to the N-terminus of enhanced green fluorescent protein were purchased form Fisher Scientific. The cells were cultured in DMEM supplemented with 2 mM L-Glutamine, 10% FBS, 1% Pen-Strep and 0.5 mg/ml G418. The cells were plated into 96-well microtiter plates at a density of 20,000 cells/well. […] After 2 h incubation, the absorbance was measured spectrophotometrically in Synergy 2 Microplate Reader (BioTek, VT) at a wavelength of 490 nm. The relative cell viability (%) was calculated as [A]sample/[A]untreated×100%.

CXCR4+U2OS cells [6] = assay: Luciferase transfection in CXCR4+U2OS cells; type: cell-based, Human; settings: 100 ng/mL, serum-free medium, 4 h

c1cc(CN2CCCNCCNCCCNCC2)ccc1CN1CCCNCCNCCCNCC1 [AMD3100, 1,1′-[1,4-Phenylenebis(methylene)]bis[1,4,8,11-tetraazacyclotetradecane]]
Effect on CXCL12-induced calcium signaling (CXCR4-mediated) (CXCR4 [1]): strong antagonistic effect; also recorded: CXCL12 antagonists
Decrease in EtBr fluorescence (pDNA): about 30%
Blocked invasion (% of cells) (CXCR4+U2OS cells [2]): 75%
Inhibition of phorbol-stimulated CXCR4 internalization (CXCR4 [3]): do not inhibit
Transfection level [4]: only background levels of transfection

[Cl][Cu][Cl] [CuCl2]
Toxicity with increasing copper content [5]: No toxicity

CCCCCCCCCCCCCC(=O)O[C@@H]1[C@@H](C)[C@@]2(O)[C@@H](C=C(CO)C[C@]3(O)C(=O)C(C)=C[C@@H]23)[C@@H]2C(C)(C)[C@]12OC(C)=O [PMA, phorbol 12-myristate 13-acetate]
Cytotoxicity under the transfection conditions (CXCR4+U2OS cells [6]): No cytotoxicity
